Test [1] has as its target T1, F508delCFTR (Homo sapiens, UniProt P13569, DEL508-508).
T1 construct: expressed in transfected cells; host or cells: CFBE41o- human lung-derived epithelial cells (CFBE41o-F508delCFTR-HRP), doxycycline-inducible
The test can be described thus: Cell Surface Expression-Horse Radish Peroxidase (CSE-HRP) assay, test compound without co-corrector.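 For Maximum % activity (without co-corrector): percent of on-plate 2 µM positive control corrector response over DMSO.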 It counts as cell-based. Conditions: for EC50: test compound without co-corrector. The method, then: (§1) Cell Surface Expression-Horse Radish Peroxidase (CSE-HRP) Assay
(§2) A cellular assay for measuring the F508delCFTR cell surface expression after correction with test compounds either without or with a co-corrector (2 μM of 3-[(2R,4R)-4-({[1-(2,2-difluoro-1,3-benzodioxol-5-yl)cyclopropyl]carbonyl}amino)-7-methoxy-3,4-dihydro-2H-chromen-2-yl]benzoic acid), was developed in human lung derived epithelial cell line (CFBE41o-) (Veit G et al, (2012) Mol Biol Cell. 23(21): 4188-4202). The development was achieved by expressing the F508delCFTR mutation along with a horseradish peroxidase (HRP) in the fourth exofacial loop, and then measuring the HRP activity using luminescence readout from these cells, CFBE41o-F508delCFTR-HRP, that were incubated overnight with the test corrector compounds, either without or with the co-corrector. For this primary assay, the CFBE41o-F508delCFTR-HRP cells were plated in 384-well plates (Greiner Bio-one; Cat 781080) at 4,000 cells/well along with 0.5 μg/mL doxycycline to induce the F508delCFTR-HRP expression and further incubated at 37° C., 5% CO2 for 72 hours. The test compounds were then added either without or with a co-corrector at the required concentrations and further incubated for 18-24 hours at 33° C. The highest concentration tested was 20 μM with an 8-point concentration response curve using a 3-fold dilution in both the test compound without or with the co-corrector. Three replicate plates were run to determine one EC50. All plates contained negative controls (dimethyl sulfoxide, DMSO) and positive control (2 μM of 3-[(2R,4R)-4-({[1-(2,2-difluoro-1,3-benzodioxol-5-yl)cyclopropyl]carbonyl}amino)-7-methoxy-3,4-dihydro-2H-chromen-2-yl]benzoic acid) as well as on-plate concentration response of the positive control. Post incubation, the plates were washed 5× times with Dulbecco's phosphate buffered saline (DPBS), followed by the addition of the HRP substrate, luminol (50 μL), and measuring the HRP activity using luminescence readout on EnVision® Multilabel Plate Reader (Perkin Elmer; product number 2104-0010). The raw counts from the experiment were analyzed using Accelrys® Assay Explorer v3.3.
(§3) Z′ greater than 0.5 was used as passing quality control criteria for the plates.
(§4) 1−[3*SDPositive Control+3*SDNegative Control/Absolute (MeanPositive Control−MeanNegative Control)]
(§5) wherein “SD” is standard deviation.
(§6) The % activity measured at each of the 8 test concentrations of the test compound added either without or with a co-corrector (2 μM of 3-[(2R,4R)-4-({[1-(2,2-difluoro-1,3-benzodioxol-5-yl)cyclopropyl]carbonyl}amino)-7-methoxy-3,4-dihydro-2H-chromen-2-yl]benzoic acid) was normalized to the on-plate positive control using the following formulae:
% activity (Test compound without co-corrector)=[(test compound without co-corrector response−DMSO response)/(positive control response−DMSO response)]*100%
(§7) The maximum % activity achieved for the test compound either without or with a co-corrector at any tested concentration is presented in Table 1 along with the respective EC50's calculated using the following general sigmoidal curve with variable Hill slope equation (described as Model 42 in the Accelrys® Assay Explorer v3.3 software):
(§8) General sigmoidal curve with concentration, response, top, bottom, EC50 and Hill slope. This model describes a sigmoidal curve with an adjustable baseline, a. The equation can be used to fit curves where response is either increasing or decreasing with respect to the independent variable, “x”.
“x” is a concentration of drug under test. “y” is the response. “a” is the maximum response, and “d” is the minimum response “c” is the inflection point (EC50) for the curve. That is, “y” is halfway between the lower and upper asymptotes when x=c. “b” is the slope-factor or Hill coefficient. The sign of b is positive when the response increases with increasing dose and is negative when the response decreases with increasing dose (inhibition). The data is presented with the qualifiers shown below: […]

Test [2] addresses T1, F508delCFTR. Briefly: Cell Surface Expression-Horse Radish Peroxidase (CSE-HRP) assay, test compound with co-corrector.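 For Maximum % activity (with co-corrector): percent of 2 µM positive control corrector over DMSO; co-corrector is that same compound.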 The test is classed as cell-based. Conditions: with 2 μM co-corrector; for Maximum % activity (with co-corrector): maximum at any tested concentration, normalized to positive control. The method, then: as §1, §2, §3, §4, §5, §6
activity (Test compound with co-corrector)=[(test compound with co-corrector response−DMSO response)/(positive control response−DMSO response)]*100
as §7, §8
“x” is a concentration of drug under test. “y” is the response. “a” is the maximum response, and “d” is the minimum response “c” is the inflection point (EC50) for the curve. That is, “y” is halfway between the lower and upper asymptotes when x=c. “b” is the slope-factor or Hill coefficient. The sign of b is positive when the response increases with increasing dose and is negative when the response decreases with increasing dose (inhibition).

Where [3] appears, read: maximum at any tested concentration, normalized to positive control, without co-corrector.

T1 sequence (P13569 with tags, fused parts or gaps DEL508-508): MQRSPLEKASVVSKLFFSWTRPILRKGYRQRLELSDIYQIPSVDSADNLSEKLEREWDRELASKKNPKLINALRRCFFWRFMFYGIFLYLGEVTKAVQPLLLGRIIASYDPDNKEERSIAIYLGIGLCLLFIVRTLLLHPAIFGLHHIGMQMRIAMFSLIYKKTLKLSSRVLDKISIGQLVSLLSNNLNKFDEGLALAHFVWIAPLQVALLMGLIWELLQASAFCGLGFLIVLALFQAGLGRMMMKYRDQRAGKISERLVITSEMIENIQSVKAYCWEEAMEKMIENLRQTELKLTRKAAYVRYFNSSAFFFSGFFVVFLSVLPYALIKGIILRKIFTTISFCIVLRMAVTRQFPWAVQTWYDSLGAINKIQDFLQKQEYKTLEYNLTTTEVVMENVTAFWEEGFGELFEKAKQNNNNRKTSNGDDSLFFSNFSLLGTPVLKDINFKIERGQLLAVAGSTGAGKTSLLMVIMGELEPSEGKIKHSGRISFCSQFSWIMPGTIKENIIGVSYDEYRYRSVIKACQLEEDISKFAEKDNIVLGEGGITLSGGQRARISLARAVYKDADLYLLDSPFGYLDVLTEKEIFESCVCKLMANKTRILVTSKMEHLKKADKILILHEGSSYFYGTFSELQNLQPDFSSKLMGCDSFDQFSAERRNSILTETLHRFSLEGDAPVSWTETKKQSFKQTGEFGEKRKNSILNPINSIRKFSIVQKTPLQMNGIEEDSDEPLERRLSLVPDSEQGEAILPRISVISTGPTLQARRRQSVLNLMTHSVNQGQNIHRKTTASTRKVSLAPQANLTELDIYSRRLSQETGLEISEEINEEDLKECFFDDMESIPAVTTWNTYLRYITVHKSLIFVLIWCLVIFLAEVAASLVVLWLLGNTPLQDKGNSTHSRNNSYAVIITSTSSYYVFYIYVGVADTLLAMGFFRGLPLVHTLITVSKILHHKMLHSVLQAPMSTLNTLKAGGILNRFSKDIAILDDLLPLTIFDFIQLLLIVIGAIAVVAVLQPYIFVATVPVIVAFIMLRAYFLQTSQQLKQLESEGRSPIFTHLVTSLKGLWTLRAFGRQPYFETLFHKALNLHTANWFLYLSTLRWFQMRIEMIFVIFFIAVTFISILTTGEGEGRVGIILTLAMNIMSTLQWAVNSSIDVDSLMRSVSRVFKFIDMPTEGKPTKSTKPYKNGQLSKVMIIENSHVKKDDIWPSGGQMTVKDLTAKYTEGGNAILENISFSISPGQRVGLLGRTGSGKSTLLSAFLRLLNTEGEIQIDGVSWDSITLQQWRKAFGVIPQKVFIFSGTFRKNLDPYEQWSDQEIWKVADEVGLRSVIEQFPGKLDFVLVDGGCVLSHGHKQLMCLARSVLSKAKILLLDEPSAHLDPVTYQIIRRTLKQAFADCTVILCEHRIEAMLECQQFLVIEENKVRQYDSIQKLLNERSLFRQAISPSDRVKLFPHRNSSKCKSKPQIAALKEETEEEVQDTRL

As usually defined, the EC50 is the concentration that produces a half-maximal response. Low values mean greater potency, high ones weaker potency. For “2-cyclobutyl-5-methoxy-N-(1-methyl-1H-benzimidazole-7-sulfonyl)bicyclo[4.2.0]octa-1,3,5-triene-7-carboxamide [Example I-134]”, the “Maximum % activity (without co-corrector)” value at F508delCFTR [1] (setting [3]) is reported as “+++ (≥150)”. For the same molecule, the EC50 on F508delCFTR [1] and on F508delCFTR [2] was less than 3 µM each time. Besides, the “Maximum % activity (with co-corrector)” value on F508delCFTR [2] is on record as “+++ (≥350)”.
As usually defined, the Emax is the maximal effect, on the per cent scale that the assay sets. On F508delCFTR [1] (setting [3]), `COc1ccc(Br)c2c1[C@@H](C(=O)NS(=O)(=O)c1cccc3ncccc13)CCC2` (single isomer, unassigned) [Example I-62] gave an Emax not below 150%. Further, at F508delCFTR [1], the EC50 was in the range of 3 to 10 µM. Besides, at F508delCFTR [2], the “Maximum % activity (with co-corrector)” value is “+++ (≥350)” and the EC50 was less than 3 µM.
Molecule `COc1ccc(Br)c2c1[C@H](C(=O)NS(=O)(=O)c1cccc3ncccc13)CCC2` (single isomer, unassigned) [Example I-63] showed an Emax at F508delCFTR [1] (setting [3]) not below 150%. At F508delCFTR [1], this molecule came in with an EC50 of less than 3 µM. For the same molecule, at F508delCFTR [2], the “Maximum % activity (with co-corrector)” value is “+++ (≥350)” and the EC50 is less than 3 µM.
The molecule `COc1ccc(Cl)c2c1CC[C@H]2C(=O)NS(=O)(=O)c1cccc2ccccc12` (single isomer, unassigned) [Example I-86] displayed an Emax on F508delCFTR [1] (setting [3]) not below 150%. At F508delCFTR [1], this molecule showed an EC50 of 3 to 10 µM. Besides, at F508delCFTR [2], the “Maximum % activity (with co-corrector)” value is on record as “+++ (≥350)” and the 50% effective concentration (EC50) was less than 3 µM.
In turn, `COc1ccc(Cl)c2c1CC[C@@H]2C(=O)NS(=O)(=O)c1cccc2ccccc12` (single isomer, unassigned) [Example I-87] registered an Emax at F508delCFTR [1] (setting [3]) of 50 to 150%. Also, the EC50 on F508delCFTR [1] is 3 to 10 µM. For the same molecule, at F508delCFTR [2], the “Maximum % activity (with co-corrector)” value is reported as “+++ (≥350)” and the EC50 lay within 3 to 10 µM.
As for `COc1ccc(C2CCC2)c2c1[C@@H](C(=O)NS(=O)(=O)c1cccc3ccccc13)C2` (single isomer, unassigned) [Example I-106], on F508delCFTR [1] (setting [3]), the Emax is not below 150%. This molecule returned an EC50 on F508delCFTR [1] of 3 to 10 µM. Also, at F508delCFTR [2], the “Maximum % activity (with co-corrector)” value is “+++ (≥350)” and the EC50 was less than 3 µM.
`COc1ccc(C2CCC2)c2c1[C@H](C(=O)NS(=O)(=O)c1cccc3ccccc13)C2` (single isomer, unassigned) [Example I-107] gave an Emax on F508delCFTR [1] (setting [3]) not below 150%. On F508delCFTR [1], this molecule came in with an EC50 of less than 3 µM. Also, at F508delCFTR [2], the “Maximum % activity (with co-corrector)” value was “+++ (≥350)” and the EC50 was less than 3 µM.
`COc1ccc(C2CCC2)c2c1[C@@H](C(=O)NS(=O)(=O)c1cccc3cnn(C)c13)CC2` (single isomer, unassigned) [Example I-141] displayed an Emax on F508delCFTR [1] (setting [3]) not below 150%. At F508delCFTR [1], this molecule registered an EC50 of 3 to 10 µM. On F508delCFTR [2], the “Maximum % activity (with co-corrector)” value was “+++ (≥350)” and the EC50 was less than 3 µM.
At F508delCFTR [1] (setting [3]), `COc1ccc(C2CCC2)c2c1[C@H](C(=O)NS(=O)(=O)c1cccc3cnn(C)c13)CC2` (single isomer, unassigned) [Example I-142] returned an Emax not below 150%. In addition, the EC50 at F508delCFTR [1] is less than 3 µM. Also, at F508delCFTR [2], the “Maximum % activity (with co-corrector)” value is “+++ (≥350)” and the EC50 is less than 3 µM.
With `COc1ccc(C2CCC2)c2c1[C@@H](C(=O)NS(=O)(=O)c1cccc3cnn(C)c13)C2` (single isomer, unassigned) [Example I-143], the Emax at F508delCFTR [1] (setting [3]) was 50 to 150%. The same molecule yielded an EC50 on F508delCFTR [1] of 3 to 10 µM. Further, at F508delCFTR [2], the “Maximum % activity (with co-corrector)” value is on record as “+++ (≥350)” and the EC50 is less than 3 µM.
The matching figures for `COc1ccc(C2CCC2)c2c1[C@@H](C(=O)NS(=O)(=O)c1cccc3c1CCCN3)C2` (single isomer, unassigned) [Example I-145]: not below 150%, 3 to 10 µM, “+++ (≥350)” and 3 to 10 µM.
Molecule `COc1ccc(C2CCC2)c2c1[C@@H](C(=O)NS(=O)(=O)c1cccc3ncccc13)C2` (single isomer, unassigned) [Example I-147] had an Emax at F508delCFTR [1] (setting [3]) not below 150%. Also, the EC50 on F508delCFTR [1] was 3 to 10 µM. In addition, on F508delCFTR [2], the “Maximum % activity (with co-corrector)” value was “+++ (≥350)” and the EC50 is less than 3 µM.
The molecule `COc1ccc(C2CCC2)c2c1[C@H](C(=O)NS(=O)(=O)c1cccc3ncccc13)C2` (single isomer, unassigned) [Example I-148] gave an Emax at F508delCFTR [1] (setting [3]) not below 150%. The molecule further had an EC50 at F508delCFTR [1] of less than 3 µM. Further, on F508delCFTR [2], the “Maximum % activity (with co-corrector)” value is given as “+++ (≥350)” and the EC50 was less than 3 µM.
`Cc1ccccc1S(=O)(=O)NC(=O)[C@H]1CCc2c(Cl)cccc21` (single isomer, unassigned) [II-29] gave an Emax on F508delCFTR [1] (setting [3]) of 50 to 150%. The EC50 at F508delCFTR [1] lay within 3 to 10 µM. Moreover, at F508delCFTR [2], the “Maximum % activity (with co-corrector)” value is “++ (≥150 and <350)”; the EC50 was less than 3 µM.
Molecule `COc1cccc2c1CCC2C(=O)NS(=O)(=O)c1cccc2ccccc12` (stereo not drawn) [Example I-1, 4-methoxy-N-(naphthalene-1-sulfonyl)-2,3-dihydro-1H-indene-1-carboxamide] displayed an Emax at F508delCFTR [1] (setting [3]) not below 150%. For the same molecule, the EC50 at F508delCFTR [1] lay within 3 to 10 µM. At F508delCFTR [2], the “Maximum % activity (with co-corrector)” value was “+++ (≥350)” and the EC50 was in the range of 3 to 10 µM.
`O=C(NS(=O)(=O)c1cccc2ccccc12)C1CCCc2cccc(Cl)c21` (stereo not drawn) [Example I-2, 8-chloro-N-(naphthalene-1-sulfonyl)-1,2,3,4-tetrahydronaphthalene-1-carboxamide] displayed an Emax at F508delCFTR [1] (setting [3]) not below 150%. Also, on F508delCFTR [1], the EC50 is 3 to 10 µM. On F508delCFTR [2], the “Maximum % activity (with co-corrector)” value is reported as “+++ (≥350)” and the EC50 was less than 3 µM.
`COc1cccc2c1CCC[C@H]2C(=O)NS(=O)(=O)c1cccc2ccccc12` [Example I-3, (1R)-5-methoxy-N-(naphthalene-1-sulfonyl)-1,2,3,4-tetrahydronaphthalene-1-carboxamide]: the Emax at F508delCFTR [1] (setting [3]) is not below 150%. Besides, the EC50 on F508delCFTR [1] and at F508delCFTR [2] was 3 to 10 µM in each case. Also, the “Maximum % activity (with co-corrector)” value at F508delCFTR [2] is reported as “+++ (≥350)”.
With `COc1cccc2c1CCCC2C(=O)NS(=O)(=O)c1cccc2ccccc12` (stereo not drawn) [Example I-4, 5-methoxy-N-(naphthalene-1-sulfonyl)-1,2,3,4-tetrahydronaphthalene-1-carboxamide], the Emax on F508delCFTR [1] (setting [3]) was not below 150%. Also, the EC50 on F508delCFTR [1] was 3 to 10 µM. Moreover, on F508delCFTR [2], the “Maximum % activity (with co-corrector)” value was “+++ (≥350)” and the EC50 lay within 3 to 10 µM.
At F508delCFTR [1] (setting [3]), `O=C(NS(=O)(=O)c1cccc2ccccc12)C1(Cc2ccccc2)CCc2c(Cl)cccc21` (stereo not drawn) [Example I-5, 1-benzyl-4-chloro-N-(naphthalene-1-sulfonyl)-2,3-dihydro-1H-indene-1-carboxamide] registered an Emax not below 150%. On F508delCFTR [1], this molecule yielded an EC50 of less than 3 µM. At F508delCFTR [2], the “Maximum % activity (with co-corrector)” value is reported as “+++ (≥350)” and the EC50 was less than 3 µM.
Take `CCCCC1(C(=O)NS(=O)(=O)c2cccc3ccccc23)CCc2c(Cl)cccc21` (stereo not drawn) [Example I-30, 1-butyl-4-chloro-N-(naphthalene-1-sulfonyl)-2,3-dihydro-1H-indene-1-carboxamide]: at F508delCFTR [2], the “Maximum % activity (with co-corrector)” value was “+++ (≥350)” and the EC50 was less than 3 µM.
